Experimental data: US10280167B2, “Purine derivatives for the treatment of viral infections” (JANSSEN SCIENCES IRELAND UC, priority 2011, dated 2019)

Legend:
Assay type in all cases: cell-based
human TLR7 [1] = target: T1, human TLR7 (Homo sapiens (Human), UniProt Q9NYK1); assay: Reporter assay for TLR7 activity, HEK293 transiently transfected with wild type TLR7 and NFκB-luc; conditions: lowest effective concentration; 24 h transfection
Experimental: (§1) Reporter Assays for Assessment of TLR7 Activity (24 h)
(§2) The ability of compounds to activate human TLR7 was assessed in a cellular reporter assay using HEK293 cells transiently transfected with a TLR7 or TLR8 expression vector and NFκB-luc reporter construct. In one instance the TLR expression construct expresses the respective wild type sequence or a mutant sequence comprising a deletion in the second leucine-rich repeat (dIRR2) of the TLR.
(§3) Briefly, HEK293 cells were grown in culture medium (DMEM supplemented with 10% FCS and 2 mM Glutamine). For transfection of cells in 10 cm dishes, cells were detached with Trypsin-EDTA, transfected with a mix of CMV-TLR7 or TLR8 plasmid (750 ng), NFκB-luc plasmid (375 ng) and a transfection reagent and incubated 24 hours or 48 hours respectively at 37° C. in a humidified 5% CO2 atmosphere. Transfected cells were then detached with Trypsin-EDTA, washed in PBS and resuspended in medium to a density of 1.67×10^5 cells/mL. Thirty microliters of cells were then dispensed into each well in 384-well plates, where 10 μL of compound in 4% DMSO was already present. Following 6 hours incubation at 37° C., 5% CO2, the luciferase activity was determined by adding 15 μl of Steady Lite Plus substrate (Perkin Elmer) to each well and readout performed on a ViewLux ultraHTS microplate imager (Perkin Elmer). Dose response curves were generated from measurements performed in quadruplicates. Lowest effective concentrations (LEC) values, defined as the concentration that induces an effect which is at least two fold above the standard deviation of the assay, were determined for each compound. Compound toxicity was determined in parallel using a similar dilution series of compound with 30 μL per well of cells transfected with the CMV-TLR7 construct alone (1.67×10^5 cells/mL), in 384-well plates. Cell viability was measured after 6 hours incubation at 37° C., 5% CO2 by adding 15 μL of ATP lite (Perkin Elmer) per well and reading on a ViewLux ultraHTS microplate imager (Perkin Elmer). Data was reported as CC50.

human TLR7 dIRR2 mutant [2] = assay: Reporter assay for TLR7 activity, HEK293 transfected with mutant TLR7 (dIRR2 deletion) and NFκB-luc; conditions: lowest effective concentration; 24 h transfection
Experimental: as §1, §2, §3

[3] = system: Huh-7 luc/neo HCV replicon cells with conditioned media from PBMC; assay: Interferon production in human PBMC (PBMC-HUH7_EC50), HCV replicon readout with conditioned media; conditions: Homo sapiens, Huh-7; concentration applied to PBMCs giving 50% reduction of replicon luciferase activity
Experimental: Measurement of Interferon Production in Human PBMC (PBMC-HUH7_EC50)
Activation of human TLR7 results in robust production of interferon by plasmacytoid dendritic cells present in human blood. The potential of compounds to induce interferon was evaluated by looking at the antiviral activity in the HCV replicon system upon incubation with conditioned media from peripheral blood mononuclear cells (PBMC). The HCV replicon assay is based on a bicistronic expression construct, as described by Lohmann et al. (Science (1999) 285: 110-113; Journal of Virology (2003) 77: 3007-15 3019) with modifications described by Krieger et al. (Journal of Virology (2001) 75: 4614-4624). The assay utilized the stably transfected cell line Huh-7 luc/neo harboring an RNA encoding a bicistronic expression construct comprising the wild type NS3-NS5B regions of HCV type 1b translated from an Internal Ribosome Entry Site (IRES) from encephalomyocarditis virus (EMCV), preceded by a reporter gene (Firefly-luciferase) and a selectable marker gene (neoR, neomycine phosphotransferase). The construct is flanked by 5′ and 3′ NTRs (non-translated regions) from HCV type 1b. Continued culture of the replicon cells in the presence of G418 (neoR) is dependent on the replication of the HCV RNA. The stably transfected replicon cells that replicate HCV RNA autonomously and to high levels, encoding inter alia luciferase, were used for profiling of the conditioned cell culture media. Briefly, PBMCs were prepared from buffy coats of at least two donors using a standard Ficoll centrifugation protocol. Isolated PBMCs were resuspended in RPMI medium supplemented with 10% human AB serum and 2×10^5 cells/well were dispensed into 384-well plates containing compounds (70 μL total volume). After overnight incubation, […] was transferred to 384-well plates containing 2.2×10^3 replicon cells/well in 30 μL (plated the day before). Following 24 hours of incubation, replication was measured by assaying luciferase activity using 40 μL/well Steady Lite Plus substrate (Perkin Elmer) and measured with ViewLux ultraHTS microplate imager (Perkin Elmer). The inhibitory activity of each compound on the Huh7-luc/neo cells were reported as EC50 values, defined as the compound concentration applied to the PBMCs resulting in a 50% reduction of luciferase activity which in turn indicates the degree of replication of the replicon RNA on transfer of a defined amount of PBMC culture medium. Recombinant interferon α-2a (Roferon-A) was used as a standard control compound.

[4] = system: HEK-ISRE-luc cells with conditioned media from PBMC; assay: Interferon production in human PBMC (PBMC HEK-ISRE-luc LEC); conditions: Homo sapiens, PBMC; lowest effective concentration; read-out: PBMC HEK-ISRE-luc (LEC)
Experimental: Measurement of Interferon Production in Human PBMC (PBMC HEK-ISRE-Luc LEC)
Activation of human TLR7 results in robust production of interferon by plasmacytoid dendritic cells present in human blood. The potential of compounds to induce interferon was evaluated by determination of interferon in the conditioned media from peripheral blood mononuclear cells (PBMC). The presence of interferon in the samples was determined, using an interferon reporter cell line stably expressing an interferon-stimulated responsive elements (ISRE)-luc reporter construct. The ISRE element with sequence GAAACTGAAACT (SEQ ID NO: 1) is highly responsive to the STAT1-STAT2-IRF9 transcription factor, which becomes activated upon binding of IFN-I to the IFN receptor. Briefly, PBMCs were prepared from buffy coats of at least two donors using a standard Ficoll centrifugation protocol. Isolated PBMCs were resuspended in RPMI medium supplemented with 10% human AB serum and 2×10^5 cells/well were dispensed into 384-well plates containing compounds (70 μL total volume). After overnight incubation of the PBMCs with the compounds, 10 μL of supernatant was transferred to 384-well plates containing 5×10^3 HEK-ISRE-luc cells/well in 30 μL (plated the day before). Following 24 hours of incubation, activation of the ISRE elements was measured by assaying luciferase activity using 40 μL/well Steady Lite Plus substrate (Perkin Elmer) and measured with ViewLux ultraHTS microplate imager (Perkin Elmer). The stimulating activity of each compound on the HEK-ISRE-luc cells was reported as LEC. The LEC in turn indicates the degree of ISRE activation on transfer of a defined amount of PBMC culture medium.
Recombinant interferon alfa-2a (Roferon-A) was used as a standard control compound.

TLR8 = assay: Reporter assay HEK293 TLR8-NFκB-luc; conditions: greater than the highest tested concentration
Experimental: as §2
Briefly, HEK293 cells were grown in culture medium (DMEM supplemented with 10% FCS and 2 mM Glutamine). […] Following 6 hours incubation at 37° C., 5% CO2, the luciferase activity was determined by adding 15 μl of Steady Lite Plus substrate (Perkin Elmer) to each well and readout performed on a ViewLux ultraHTS microplate imager (Perkin Elmer). […] Lowest effective concentrations (LEC) values, defined as the concentration that induces an effect which is at least two fold above the standard deviation of the assay, were determined for each compound. Compound toxicity was determined in parallel using a similar dilution series of compound with 30 μL per well of cells transfected with the CMV-TLR7 construct alone (1.67×10^5 cells/mL), in 384-well plates. Cell viability was measured after 6 hours incubation at 37° C., 5% CO2 by adding 15 μL of ATP lite (Perkin Elmer) per well and reading on a ViewLux ultraHTS microplate imager (Perkin Elmer). […]

HEK293 NFκB-luc = assay: Reporter assay HEK293 NFκB-luc; conditions: greater than the highest tested concentration
human TLR7 [5] = target: T1, human TLR7; assay: Reporter assay for TLR7 activity, HEK293 transiently transfected with wild type TLR7 and NFκB-luc; conditions: lowest effective concentration; 48 h transfection
human TLR7 dIRR2 mutant [6] = assay: Reporter assay for TLR7 activity, HEK293 transfected with mutant TLR7 (dIRR2 deletion) and NFκB-luc; conditions: lowest effective concentration; 48 h transfection

T1 sequence (Q9NYK1 27-1049): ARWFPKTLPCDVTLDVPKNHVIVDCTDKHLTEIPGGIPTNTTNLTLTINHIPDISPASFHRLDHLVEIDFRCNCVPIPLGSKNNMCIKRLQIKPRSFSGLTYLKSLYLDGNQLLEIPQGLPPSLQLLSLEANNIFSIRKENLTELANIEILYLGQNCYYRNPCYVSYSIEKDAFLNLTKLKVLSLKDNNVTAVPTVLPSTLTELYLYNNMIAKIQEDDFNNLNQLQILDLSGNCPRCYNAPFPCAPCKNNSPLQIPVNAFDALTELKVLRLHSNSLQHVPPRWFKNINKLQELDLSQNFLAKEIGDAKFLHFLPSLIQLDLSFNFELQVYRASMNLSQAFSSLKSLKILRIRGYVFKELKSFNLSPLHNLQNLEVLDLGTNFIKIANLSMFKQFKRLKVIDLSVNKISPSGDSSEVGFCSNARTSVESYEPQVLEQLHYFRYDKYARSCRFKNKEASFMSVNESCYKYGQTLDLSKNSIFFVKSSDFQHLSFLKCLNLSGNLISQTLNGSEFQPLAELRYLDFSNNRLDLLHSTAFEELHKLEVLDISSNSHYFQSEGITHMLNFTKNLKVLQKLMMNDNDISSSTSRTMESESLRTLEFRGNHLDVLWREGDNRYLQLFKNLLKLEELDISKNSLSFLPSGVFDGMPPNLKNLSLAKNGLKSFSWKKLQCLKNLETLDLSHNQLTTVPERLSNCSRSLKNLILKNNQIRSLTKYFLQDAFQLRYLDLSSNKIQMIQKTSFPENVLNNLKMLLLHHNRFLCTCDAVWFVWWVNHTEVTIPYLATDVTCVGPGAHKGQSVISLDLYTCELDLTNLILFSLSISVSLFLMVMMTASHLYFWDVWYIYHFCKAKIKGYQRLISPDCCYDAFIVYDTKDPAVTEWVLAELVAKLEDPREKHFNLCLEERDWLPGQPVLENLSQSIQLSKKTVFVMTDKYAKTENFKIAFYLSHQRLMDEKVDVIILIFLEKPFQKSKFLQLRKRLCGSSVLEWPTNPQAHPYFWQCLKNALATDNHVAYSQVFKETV

Nc1nc(-c2nc(C3CCCC3)c[nH]2)nc2c1[nH]c(=O)n2Cc1ccccc1 [Compound 3]
TLR7-wt_LEC 24 h (human TLR7 [1]): >24.59 µM
TLR7-dIRR2_LEC 24 h (human TLR7 dIRR2 mutant [2]): 7.67 µM
EC50 [3]: 14 µM

CCc1[nH]c(-c2nc(N)c3[nH]c(=O)n(Cc4ccccc4)c3n2)nc1C1CC1 [Compound 6]
TLR7-dIRR2_LEC 24 h (human TLR7 dIRR2 mutant [2]): 0.66 µM
EC50 [3]: 0.053 µM
minimal effective concentration [4]: 0.04 µM
LEC on HEK293 TLR8-NFκB-luc (TLR8): > 10 µM
LEC on HEK293 NFκB-luc (HEK293 NFκB-luc): > 10 µM
TLR7-wt_LEC 48 h (human TLR7 [5]): 6.32 µM
TLR7-dIRR2_LEC 48 h (human TLR7 dIRR2 mutant [6]): 0.34 µM

Nc1nc(-c2cncnc2)nc2c1[nH]c(=O)n2Cc1ccccc1 [Compound 15]
TLR7-wt_LEC 24 h (human TLR7 [1]): >24.59 µM
TLR7-dIRR2_LEC 24 h (human TLR7 dIRR2 mutant [2]): 10.57 µM
EC50 [3]: 16.9 µM
TLR7-wt_LEC 48 h (human TLR7 [5]): >25 µM
TLR7-dIRR2_LEC 48 h (human TLR7 dIRR2 mutant [6]): 9.75 µM

Nc1nc(-c2ccc[nH]2)nc2c1[nH]c(=O)n2Cc1ccccc1 [Compound 18]
TLR7-wt_LEC 24 h (human TLR7 [1]): >24.59 µM
TLR7-dIRR2_LEC 24 h (human TLR7 dIRR2 mutant [2]): 3.23 µM
EC50 [3]: 2.58 µM
TLR7-wt_LEC 48 h (human TLR7 [5]): 20.31 µM
TLR7-dIRR2_LEC 48 h (human TLR7 dIRR2 mutant [6]): 3.81 µM

Nc1nc(-c2cn[nH]c2)nc2c1[nH]c(=O)n2Cc1ccccc1 [Compound 19]
TLR7-wt_LEC 24 h (human TLR7 [1]): >24.59 µM
TLR7-dIRR2_LEC 24 h (human TLR7 dIRR2 mutant [2]): 13.31 µM
EC50 [3]: 12.4 µM
TLR7-wt_LEC 48 h (human TLR7 [5]): >25 µM
TLR7-dIRR2_LEC 48 h (human TLR7 dIRR2 mutant [6]): 16.6 µM
